From ChEMBL document CHEMBL1201862, “PubChem BioAssay data set” (2004)
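Each compound was tested at five concentrations against cells in 96-well plates for 48 hours. GI50 is the concentration that inhibits growth by half.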 Activity calls are given as the source filed them. Cut-off read from the data, not from the text of the source: active = GI50 up to about 1.1 µM and inactive = higher.

Experiments:
Assay in all cases: growth of human tumour cells (NCI), 48 h
[1] = tested on: 786-0
[2] = tested on: A498
[3] = tested on: A549
[4] = tested on: ACHN
[5] = tested on: BT-549
[6] = tested on: CAKI-1
[7] = tested on: CCRF-CEM
[8] = tested on: COLO 205
[9] = tested on: DU-145
[10] = tested on: EKVX
[11] = tested on: HCC 2998
[12] = tested on: HCT-116
[13] = tested on: HCT-15
[14] = tested on: HL-60
[15] = tested on: HOP-62
[16] = tested on: HOP-92
[17] = tested on: HT-29
[18] = tested on: Hs-578T
[19] = tested on: IGROV-1
[20] = tested on: K562
[21] = tested on: KM12
[22] = tested on: LOX IMVI
[23] = tested on: M14
[24] = tested on: MCF7
[25] = tested on: MDA-MB-231
[26] = tested on: MDA-MB-435
[27] = tested on: MDA-N
[28] = tested on: MOLT-4
[29] = tested on: Malme-3M
[30] = tested on: NCI-H226
[31] = tested on: NCI-H23
[32] = tested on: NCI-H460
[33] = tested on: NCI-H522
[34] = tested on: NCI/ADR-RES
[35] = tested on: OVCAR-3
[36] = tested on: OVCAR-4
[37] = tested on: OVCAR-5
[38] = tested on: OVCAR-8
[39] = tested on: PC-3
[40] = tested on: RPMI-8226
[41] = tested on: RXF 393
[42] = tested on: SF-268
[43] = tested on: SF-295
[44] = tested on: SF-539
[45] = tested on: SK-MEL-28
[46] = tested on: SK-MEL-2
[47] = tested on: SK-MEL-5
[48] = tested on: SK-OV-3
[49] = tested on: SN12C
[50] = tested on: SNB-19
[51] = tested on: SNB-75
[52] = tested on: SW-620
[53] = tested on: T47D
[54] = tested on: TK-10
[55] = tested on: U-251
[56] = tested on: UACC-257
[57] = tested on: UACC-62
[58] = tested on: UO-31
[59] = tested on: SR

Measured: GI50

O=C1NC(c2ccccc2)N=C2Oc3ccccc3C=C12 (centres undefined)
0.153 µM: [13]
inactive: [2] 1.27 µM | [3] 1.73 µM | [4] 2.87 µM | [5] 32.6 µM | [16] 47.2 µM | [17] 1.68 µM | [20] 1.28 µM | [21] 2.62 µM | [22] 5.12 µM | [28] 1.69 µM | [36] > 100 µM | [38] 3.47 µM | [40] 19.3 µM | [42] 5.98 µM | [44] 2.6 µM | [45] 38.7 µM | [46] 1.26 µM | [49] 3.27 µM | [50] 4.61 µM | [53] > 100 µM | [54] > 63.1 µM | [55] 4.21 µM | [58] 8.22 µM
active: [1] 0.281 µM | [6] 0.0255 µM | [7] 0.562 µM | [8] 0.0731 µM | [9] 0.231 µM | [10] 0.181 µM | [11] 0.0277 µM | [12] 0.263 µM | [14] 0.212 µM | [15] 0.543 µM | [18] 0.521 µM | [19] 0.535 µM | [23] 0.194 µM | [24] 0.359 µM | [25] 0.569 µM | [26] < 0.0265 µM | [27] 0.0738 µM | [29] 0.122 µM | [30] 0.579 µM | [31] 0.151 µM | [32] 0.565 µM | [33] 0.622 µM | [34] 0.533 µM | [35] 0.0897 µM | [37] 1.04 µM | [39] 0.0753 µM | [41] 0.603 µM | [43] 0.444 µM | [47] 0.185 µM | [48] 0.0424 µM | [51] 0.547 µM | [52] 0.621 µM | [56] 0.065 µM | [57] 0.127 µM

COc1ccc(C(=O)/C=C2\c3ccccc3C(=O)N2C)cc1
36.4 µM: [13]
inactive: [1] 92.3 µM | [2] 69 µM | [3] 58.6 µM | [4] 89.5 µM | [5] 68.1 µM | [6] 36.4 µM | [7] 44.8 µM | [8] 55 µM | [9] > 100 µM | [10] 26.8 µM | [12] 59.3 µM | [15] 60.4 µM | [16] 24.5 µM | [17] 35.6 µM | [18] 90.6 µM | [19] 28 µM | [20] 44.1 µM | [21] 62.8 µM | [22] 46.8 µM | [23] 48.6 µM | [24] 21 µM | [25] > 100 µM | [26] 36.9 µM | [27] 41.4 µM | [28] 58.7 µM | [29] 31.7 µM | [31] 55.3 µM | [32] 36.1 µM | [33] 31.9 µM | [34] 38 µM | [35] 98.2 µM | [36] 42.6 µM | [37] > 100 µM | [38] 64.4 µM | [39] 89.1 µM | [40] 41.5 µM | [41] 22.9 µM | [42] 61.2 µM | [43] 71 µM | [44] 64 µM | [45] > 100 µM | [46] > 100 µM | [47] 63.4 µM | [48] 74.8 µM | [49] 58.5 µM | [50] > 100 µM | [51] 22.8 µM | [59] 33.5 µM | [52] > 100 µM | [53] 27 µM | [54] 31.2 µM | [55] 74.8 µM | [56] 31.3 µM | [57] 41.1 µM | [58] 44.3 µM

O=C(O)c1ccc2c(O)c(O)ccc2c1
inactive: [1] 18.1 µM | [2] 44.4 µM | [3] 28 µM | [4] 15.8 µM | [5] 21.6 µM | [6] 21.6 µM | [8] 26.2 µM | [9] 39.8 µM | [10] 20.8 µM | [11] 33.3 µM | [12] 25.9 µM | [15] 20.7 µM | [16] 32.8 µM | [17] 6.82 µM | [18] 27.2 µM | [19] 19.7 µM | [20] 7.8 µM | [21] 16.4 µM | [22] 5.38 µM | [23] 23.5 µM | [24] 7.23 µM | [25] 29 µM | [26] 14.1 µM | [27] 18.5 µM | [28] 6.75 µM | [29] 38.9 µM | [30] 18.7 µM | [31] 22 µM | [33] 16.9 µM | [34] 19.5 µM | [35] 18.8 µM | [36] 21.5 µM | [37] 26.3 µM | [38] 20 µM | [39] 33.7 µM | [40] 15.4 µM | [41] 20.9 µM | [42] 8.47 µM | [43] 15.2 µM | [44] 4.81 µM | [45] > 100 µM | [46] 26.8 µM | [47] 17.3 µM | [48] > 43.1 µM | [49] 8.61 µM | [50] 18.8 µM | [51] 10.4 µM | [59] 3.17 µM | [52] 26.5 µM | [53] 45.4 µM | [54] 13.8 µM | [55] 19.9 µM | [56] 21.1 µM | [57] > 10 µM | [58] 19.5 µM
21.6 µM: [13]

O=C(c1ccccc1)c1ccc2[nH]c(-c3c(Cl)c(Cl)c(Cl)c(Cl)c3C(=O)N/N=C\C=C\c3ccccc3)nc2c1
32.5 µM: [13]
inactive: [1] 35.8 µM | [3] 50.1 µM | [4] 19.8 µM | [5] 47.1 µM | [6] 77.4 µM | [7] 12 µM | [8] 30.5 µM | [9] 73.1 µM | [10] 40.7 µM | [12] 58.6 µM | [14] 37.8 µM | [15] 54.1 µM | [16] 41.1 µM | [17] 45 µM | [18] 52.7 µM | [19] 34.4 µM | [20] 19.4 µM | [21] 61.4 µM | [22] 48.9 µM | [23] 53.5 µM | [24] 20.7 µM | [25] 22.6 µM | [26] 30.1 µM | [27] 32.1 µM | [28] 17.7 µM | [29] 57.3 µM | [30] 42.8 µM | [31] 59.3 µM | [33] 26.9 µM | [34] > 100 µM | [35] 25.1 µM | [36] 26.1 µM | [37] > 100 µM | [38] 60 µM | [39] 42.3 µM | [40] 17.5 µM | [41] 21.8 µM | [42] 38.6 µM | [43] 38.9 µM | [44] 61 µM | [45] 51.3 µM | [46] 37.1 µM | [47] 26.9 µM | [48] > 100 µM | [49] 31.3 µM | [50] 66.2 µM | [51] 59.4 µM | [59] 23.3 µM | [52] 54.1 µM | [53] 16.5 µM | [54] 86.9 µM | [55] 68.9 µM | [56] 83.9 µM | [58] 39.5 µM

c1ccc2c(c1)Sc1ccccc1N2CCCN1c2ccccc2Sc2ccccc21
> 100 µM: [13]
inactive: [1] 20.2 µM | [2] > 100 µM | [3] > 100 µM | [4] 39.1 µM | [5] > 100 µM | [6] > 100 µM | [8] 52.6 µM | [9] > 100 µM | [10] > 100 µM | [11] > 100 µM | [12] 55.5 µM | [15] 95.1 µM | [16] > 100 µM | [17] > 100 µM | [18] 41.2 µM | [19] > 100 µM | [20] > 100 µM | [21] > 100 µM | [22] > 100 µM | [23] 50.6 µM | [24] > 100 µM | [25] > 100 µM | [26] 58.9 µM | [27] > 100 µM | [28] 76.4 µM | [29] > 100 µM | [30] > 100 µM | [31] > 100 µM | [32] 39.9 µM | [33] > 100 µM | [34] 69.8 µM | [35] 63.5 µM | [36] 36.1 µM | [37] > 100 µM | [38] 54.2 µM | [39] > 100 µM | [41] 78.5 µM | [42] > 100 µM | [43] > 100 µM | [44] > 100 µM | [45] > 100 µM | [47] > 100 µM | [48] > 100 µM | [49] 91.6 µM | [50] > 100 µM | [59] > 100 µM | [52] > 100 µM | [53] > 100 µM | [54] > 100 µM | [55] 45.9 µM | [56] > 100 µM | [57] > 100 µM | [58] > 100 µM
